Reference: US9302988B2, “Fluoromethyl-substituted pyrrole carboxamides” (GRÜNENTHAL GMBH, priority 2012, dated 2016)

Each compound was assayed against T1, Human CaV2.2 channels (Homo sapiens, UniProt Q00975) (assay: Fluorescent assay for CaV2.2 channels using potassium depolarization to induce channel opening (FLIPR, Fluo-4)). Conditions: 3 μM test compound, 30 mM KCl, HEK293 cells stably expressing human CaV2.2; read-out: %-Inhib (CaV2.2) @3 μM @30 mM KCl.
T1 construct: expressed in transfected cells
T1 sequence (Q00975 whole entry): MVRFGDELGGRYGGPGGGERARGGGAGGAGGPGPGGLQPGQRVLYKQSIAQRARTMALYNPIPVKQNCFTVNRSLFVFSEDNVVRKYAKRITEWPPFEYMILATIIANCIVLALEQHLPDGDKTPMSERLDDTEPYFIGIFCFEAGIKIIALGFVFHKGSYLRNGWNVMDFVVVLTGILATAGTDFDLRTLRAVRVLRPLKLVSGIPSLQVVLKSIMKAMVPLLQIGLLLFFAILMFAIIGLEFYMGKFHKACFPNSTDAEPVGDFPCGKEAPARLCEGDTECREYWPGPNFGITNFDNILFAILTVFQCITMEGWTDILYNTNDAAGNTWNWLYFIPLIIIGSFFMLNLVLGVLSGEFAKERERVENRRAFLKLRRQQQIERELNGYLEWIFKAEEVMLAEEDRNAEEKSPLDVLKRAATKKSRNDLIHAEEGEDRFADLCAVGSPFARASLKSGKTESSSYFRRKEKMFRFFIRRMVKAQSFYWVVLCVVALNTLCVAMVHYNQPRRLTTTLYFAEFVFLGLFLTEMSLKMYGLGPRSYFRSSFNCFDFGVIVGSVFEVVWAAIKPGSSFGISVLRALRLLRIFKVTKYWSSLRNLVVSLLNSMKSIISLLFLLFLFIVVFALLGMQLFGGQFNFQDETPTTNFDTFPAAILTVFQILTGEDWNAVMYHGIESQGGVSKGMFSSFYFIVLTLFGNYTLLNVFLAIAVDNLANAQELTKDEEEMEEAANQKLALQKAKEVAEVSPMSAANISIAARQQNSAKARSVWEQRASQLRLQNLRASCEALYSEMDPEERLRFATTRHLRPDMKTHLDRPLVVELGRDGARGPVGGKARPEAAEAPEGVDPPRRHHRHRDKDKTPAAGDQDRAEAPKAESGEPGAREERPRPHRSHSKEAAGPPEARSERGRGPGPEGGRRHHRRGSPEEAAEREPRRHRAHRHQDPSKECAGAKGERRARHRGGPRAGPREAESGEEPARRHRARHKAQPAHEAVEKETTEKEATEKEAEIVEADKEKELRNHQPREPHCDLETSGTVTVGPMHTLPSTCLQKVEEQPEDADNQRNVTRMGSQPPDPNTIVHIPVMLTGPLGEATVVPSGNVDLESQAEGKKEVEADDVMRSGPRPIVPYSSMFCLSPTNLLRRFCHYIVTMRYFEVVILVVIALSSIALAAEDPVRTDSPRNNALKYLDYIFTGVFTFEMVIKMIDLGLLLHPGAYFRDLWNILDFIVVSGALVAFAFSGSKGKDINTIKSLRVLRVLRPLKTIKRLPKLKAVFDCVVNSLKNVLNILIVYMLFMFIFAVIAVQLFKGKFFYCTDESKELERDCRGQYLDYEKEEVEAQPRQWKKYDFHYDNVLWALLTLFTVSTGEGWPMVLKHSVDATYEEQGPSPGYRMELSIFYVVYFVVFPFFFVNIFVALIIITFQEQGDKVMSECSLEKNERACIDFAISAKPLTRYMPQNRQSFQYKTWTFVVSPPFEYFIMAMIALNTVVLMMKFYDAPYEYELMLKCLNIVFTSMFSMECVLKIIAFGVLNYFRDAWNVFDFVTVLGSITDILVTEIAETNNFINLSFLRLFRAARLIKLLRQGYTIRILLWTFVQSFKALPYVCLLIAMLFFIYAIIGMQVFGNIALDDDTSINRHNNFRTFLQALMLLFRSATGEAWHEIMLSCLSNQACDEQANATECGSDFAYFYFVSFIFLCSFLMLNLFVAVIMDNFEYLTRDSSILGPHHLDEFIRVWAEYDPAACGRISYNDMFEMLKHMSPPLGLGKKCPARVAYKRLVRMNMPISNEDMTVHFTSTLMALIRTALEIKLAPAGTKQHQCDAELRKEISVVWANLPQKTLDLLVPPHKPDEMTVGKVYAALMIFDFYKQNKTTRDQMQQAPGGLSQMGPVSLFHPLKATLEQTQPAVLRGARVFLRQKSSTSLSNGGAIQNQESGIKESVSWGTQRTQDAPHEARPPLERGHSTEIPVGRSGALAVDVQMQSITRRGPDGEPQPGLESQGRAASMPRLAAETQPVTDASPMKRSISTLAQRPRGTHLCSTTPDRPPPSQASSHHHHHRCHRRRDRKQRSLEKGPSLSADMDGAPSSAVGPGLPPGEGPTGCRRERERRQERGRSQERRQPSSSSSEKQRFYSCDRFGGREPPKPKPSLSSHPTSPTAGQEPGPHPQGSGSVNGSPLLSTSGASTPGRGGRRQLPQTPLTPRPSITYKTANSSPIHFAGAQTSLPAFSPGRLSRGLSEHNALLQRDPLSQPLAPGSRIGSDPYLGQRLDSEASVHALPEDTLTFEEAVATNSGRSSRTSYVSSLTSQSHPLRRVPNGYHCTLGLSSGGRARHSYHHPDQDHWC
T1 sequence (P54289 25-1103, further chain): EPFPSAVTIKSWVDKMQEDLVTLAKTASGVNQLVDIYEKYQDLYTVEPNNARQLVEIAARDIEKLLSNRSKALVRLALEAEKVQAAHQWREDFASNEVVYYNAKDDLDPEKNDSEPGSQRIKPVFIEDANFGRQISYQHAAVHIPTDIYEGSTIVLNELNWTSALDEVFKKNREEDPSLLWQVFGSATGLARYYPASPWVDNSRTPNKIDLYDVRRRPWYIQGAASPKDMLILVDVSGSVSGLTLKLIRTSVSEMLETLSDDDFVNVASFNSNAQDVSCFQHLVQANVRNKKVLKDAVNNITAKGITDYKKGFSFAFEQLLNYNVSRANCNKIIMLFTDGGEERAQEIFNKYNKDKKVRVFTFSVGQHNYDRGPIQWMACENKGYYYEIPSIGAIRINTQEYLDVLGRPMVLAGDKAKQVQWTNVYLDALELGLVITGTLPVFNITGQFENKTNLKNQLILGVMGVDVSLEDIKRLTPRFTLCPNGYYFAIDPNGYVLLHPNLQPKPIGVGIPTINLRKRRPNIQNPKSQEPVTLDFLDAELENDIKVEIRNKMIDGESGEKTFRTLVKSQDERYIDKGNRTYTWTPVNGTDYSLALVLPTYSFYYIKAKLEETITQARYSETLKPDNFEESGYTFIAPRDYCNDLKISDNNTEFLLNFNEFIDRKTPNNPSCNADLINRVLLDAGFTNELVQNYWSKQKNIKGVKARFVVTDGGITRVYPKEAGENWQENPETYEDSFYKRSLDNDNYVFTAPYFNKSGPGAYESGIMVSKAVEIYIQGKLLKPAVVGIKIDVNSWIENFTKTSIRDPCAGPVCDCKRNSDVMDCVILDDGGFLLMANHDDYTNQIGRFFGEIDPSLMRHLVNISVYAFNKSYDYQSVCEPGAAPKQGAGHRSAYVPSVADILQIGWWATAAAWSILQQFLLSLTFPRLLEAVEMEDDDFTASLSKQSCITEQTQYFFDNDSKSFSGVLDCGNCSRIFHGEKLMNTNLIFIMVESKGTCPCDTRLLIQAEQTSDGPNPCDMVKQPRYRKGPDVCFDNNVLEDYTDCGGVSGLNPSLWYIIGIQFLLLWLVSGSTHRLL
T1 sequence (P54284 whole entry, further chain): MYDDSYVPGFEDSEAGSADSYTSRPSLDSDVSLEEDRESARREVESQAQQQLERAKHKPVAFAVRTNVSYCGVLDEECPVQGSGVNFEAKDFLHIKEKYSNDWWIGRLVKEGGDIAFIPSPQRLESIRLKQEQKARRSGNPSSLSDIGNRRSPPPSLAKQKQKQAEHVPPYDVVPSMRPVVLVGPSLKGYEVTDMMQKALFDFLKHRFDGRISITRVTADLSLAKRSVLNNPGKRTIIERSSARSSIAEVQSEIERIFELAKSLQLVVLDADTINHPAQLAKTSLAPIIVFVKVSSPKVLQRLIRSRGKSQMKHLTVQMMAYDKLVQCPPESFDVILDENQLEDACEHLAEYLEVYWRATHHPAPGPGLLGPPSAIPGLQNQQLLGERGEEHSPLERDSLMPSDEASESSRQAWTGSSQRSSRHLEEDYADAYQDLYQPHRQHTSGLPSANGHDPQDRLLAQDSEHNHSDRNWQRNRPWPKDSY
Format: cell-based
Excerpt: In the process, the Ca^2+ influx is quantified in the FLIPR assay with the aid of a Ca^2+-sensitive dye (type Fluo-4, Molecular Probes Europe BV, Leiden, the Netherlands) in a fluorescent imaging plate reader (FLIPR 3, Molecular Devices, Sunnyvale, USA), as described hereinafter.
2.1 Fluorescent Assay for CaV2.2 Channels Using Potassium Depolarization to Induce Channel Opening
Human CaV2.2 channels were stably expressed in HEK293 cells together with alpha2-delta and beta subunits of voltage gated calcium channels. In addition, an inwardly rectifying potassium channel (Kir2.3) was stably expressed in these cells to augment control of the cell membrane potential by the concentration of extracellular potassium ions. Raise of the extracellular potassium concentration leads to depolarization of the membrane potential and thus regulates the voltage dependent state of CaV2.2 channels. For preparation, cells were seeded in black poly-D-lysine coated 96-well plates (Becton Dickinson, Biocoat 4640) in 100 μl medium [500 ml DMEM/F-12 plus Glutamax (Invitrogen 31331-093) plus 5.5 ml MEM NEAA 100× (Invitrogen 11140-035) plus 50 ml FBS decomplemented (Invitrogen 10270-106) plus 4.4 ml Geneticin (Invitrogen 10131-027) plus 1.1 ml Hygromycin B (Invitrogen 10687-010) plus 68.75 μl Puromycin (Clontech, 631306)] at a cell density of 45.000 cells per well.
Plates were incubated at 37° C. (5% CO2) for 20 to 23 hours. On the day of experiment medium was discarded and cells were loaded with Fluo 4 by addition of 100 μl of basic assay buffer (10 mM HEPES, 30 mM KCl, 120 mM NaCl, 0.8 mM CaCl2, 1.7 mM MgCl2, 10 mM Glucose, 0.1% BSA. pH 7.4) containing 2 μM Fluo 4 (Molecular Probes; F-14201), 0.01% pluronic acid (Molecular Probes; P-6866) and 2.5 mM probenecid (Molecular Probes; P36400). Cells were incubated in the dark at 25° C. for 60 min. Then the dye containing buffer was discarded and 100 μl basic assay buffer was added. Subsequently cells were incubated in the dark at 25° C. for 15 min. 25 μl of basic assay buffer with or without test compound were added and cells were incubated again in the dark at 25° C. for 15 min. Fluorescence intensity was measured on a FLIPR 3 instrument (Molecular Devices Corp., Sunnyvale, Calif.) with excitation at 480 nm and emission at 535 nm. After continuously reading fluorescence for 30 sec, 50 μl of basic assay buffer containing 210 mM KCl (NaCl omitted) were added for depolarization. Peak fluorescent signal intensity was determined and the amplitude of the peak signal, normalized to base line, was used to measure channel inhibition by test compounds.
With `CC(C)NC(=O)c1c(-c2ccc(Cl)cc2)cc(C(F)(F)F)n1Cc1ccccc1` [SC-214, 1-Benzyl-3-(4-chlorophenyl)-N-isopropyl-5-(trifluoromethyl)-1H-pyrrole-2-carboxylic acid amide] the inhibition at 3 µM was 75 to 95%. In the case of `CC(C)(CO)CNC(=O)c1c(-c2ccc(Cl)cc2)cc(C(F)(F)F)n1Cc1ccccc1` [SC-177, 1-Benzyl-3-(4-chlorophenyl)-N-(3-hydroxy-2,2-dimethyl-propyl)-5-(trifluoromethyl)-1H-pyrrole-2-carboxylic acid amide], the inhibition at 3 µM is reported as over 95%. `CC(CS(C)(=O)=O)N(C)C(=O)c1c(-c2ccc(Cl)cc2)cc(C(F)(F)F)n1Cc1ccccc1` (stereo not shown) [SC-198, 1-Benzyl-3-(4-chlorophenyl)-N-methyl-N-(1-methyl-2-methylsulfonyl-ethyl)-5-(trifluoromethyl)-1H-pyrrole-2-carboxylic acid amide] gave an inhibition at 3 µM of over 95%. `Cc1c(-c2ccc(Cl)cc2)c(C(=O)N2CCN(C)C(=O)C2)n(Cc2ccccc2)c1C(F)(F)F` [SC-09, 4-[1-Benzyl-3-(4-chlorophenyl)-4-methyl-5-(trifluoromethyl)-1H-pyrrole-2-carbonyl]-1-methyl-piperazin-2-one] showed an inhibition at 3 µM of 75 to 95%. `Cc1c(-c2ccc(Cl)cc2)c(C(=O)N(C)CC2(CO)CCC2)n(Cc2ccccc2)c1C(F)(F)F` [SC-116, 1-Benzyl-3-(4-chlorophenyl)-N-[[1-(hydroxymethyl)-cyclobutyl]-methyl]-N,4-dimethyl-5-(trifluoromethyl)-1H-pyrrole-2-carboxylic acid amide] showed an inhibition at 3 µM of over 95%. In the case of `Cc1c(-c2ccc(F)cc2)c(C(=O)N(C)CC2CCOC2)n(Cc2ccccc2)c1C(F)(F)F` (stereo not shown) [SC-226, 1-Benzyl-3-(4-fluorophenyl)-N,4-dimethyl-N-(tetrahydro-furan-3-yl-methyl)-5-(trifluoromethyl)-1H-pyrrole-2-carboxylic acid amide], the inhibition at 3 µM is reported as over 95%. Work on `Cc1c(-c2ccc(OC(F)(F)F)cc2)c(C(=O)N(C)C2CCOCC2)n(Cc2ccccc2)c1C(F)(F)F` [SC-237, 1-Benzyl-N,4-dimethyl-N-tetrahydro-pyran-4-yl-5-(trifluoromethyl)-3-[4-(trifluoromethyloxy)-phenyl]-1H-pyrrole-2-carboxylic acid amide] yielded an inhibition at 3 µM of 75 to 95%. Work on `Cc1c(-c2ccc(F)c(Cl)c2)c(C(=O)N(C)C2CCOCC2)n(Cc2ccccc2)c1C(F)(F)F` [SC-253, 1-Benzyl-3-(3-chloro-4-fluoro-phenyl)-N,4-dimethyl-N-tetrahydro-pyran-4-yl-5-(trifluoromethyl)-1H-pyrrole-2-carboxylic acid amide] yielded an inhibition at 3 µM of over 95%. With `Cc1c(-c2ccc(Cl)cc2F)c(C(=O)N(C)CCS(C)(=O)=O)n(Cc2ccccc2)c1C(F)(F)F` [SC-64, 1-Benzyl-3-(4-chloro-2-fluoro-phenyl)-N,4-dimethyl-N-(2-methylsulfonyl-ethyl)-5-(trifluoromethyl)-1H-pyrrole-2-carboxylic acid amide] the inhibition at 3 µM was over 95%. Compound `Cc1c(-c2ccc(Cl)cc2)c(C(=O)N(C)CCCS(C)(=O)=O)n(Cc2ccccc2)c1C(F)(F)F` [SC-127, 1-Benzyl-3-(4-chlorophenyl)-N,4-dimethyl-N-(3-methylsulfonyl-propyl)-5-(trifluoromethyl)-1H-pyrrole-2-carboxylic acid amide] has an inhibition at 3 µM of over 95%. `CN(CC1(CO)CCC1)C(=O)c1c(-c2ccc(Cl)cc2)cc(C(F)(F)F)n1Cc1ccccc1` [SC-179, 1-Benzyl-3-(4-chlorophenyl)-N-[[1-(hydroxymethyl)-cyclobutyl]-methyl]-N-methyl-5-(trifluoromethyl)-1H-pyrrole-2-carboxylic acid amide] was tested, and the inhibition at 3 µM was over 95%. Compound `CC(C)S(=O)(=O)CCN(C)C(=O)c1c(-c2ccc(Cl)cc2)cc(C(F)(F)F)n1Cc1ccccc1` [SC-194, 1-Benzyl-3-(4-chlorophenyl)-N-[2-(isopropylsulfonyl)-ethyl]-N-methyl-5-(trifluoromethyl)-1H-pyrrole-2-carboxylic acid amide] has an inhibition at 3 µM of over 95%. Compound `Cc1c(-c2ccc(Cl)cc2F)c(C(=O)N(CCS(C)(=O)=O)C(C)C)n(Cc2ccccc2)c1C(F)(F)F` [SC-169, 1-Benzyl-3-(4-chloro-2-fluoro-phenyl)-N-isopropyl-4-methyl-N-(2-methylsulfonyl-ethyl)-5-(trifluoromethyl)-1H-pyrrole-2-carboxylic acid amide] has an inhibition at 3 µM of 75 to 95%. Work on `Cc1c(-c2ccc(Cl)cc2)c(C(=O)N(C)CC(C)(CO)CO)n(Cc2ccccc2)c1C(F)(F)F` [SC-125, 1-Benzyl-3-(4-chlorophenyl)-N-[3-hydroxy-2-(hydroxymethyl)-2-methyl-propyl]-N,4-dimethyl-5-(trifluoromethyl)-1H-pyrrole-2-carboxylic acid amide] yielded an inhibition at 3 µM of over 95%. In the case of `CN(CCC(C)(C)C)C(=O)c1c(-c2ccc(Cl)cc2)cc(C(F)(F)F)n1Cc1ccccc1` [SC-84, 1-Benzyl-3-(4-chlorophenyl)-N-(3,3-dimethyl-butyl)-N-methyl-5-(trifluoromethyl)-1H-pyrrole-2-carboxylic acid amide], the inhibition at 3 µM is reported as 40 to 75%. `Cc1c(-c2ccc(Cl)cc2)c(C(=O)NCCS(C)(=O)=O)n(Cc2ccccc2)c1C(F)(F)F` [SC-129, 1-Benzyl-3-(4-chlorophenyl)-4-methyl-N-(2-methylsulfonyl-ethyl)-5-(trifluoromethyl)-1H-pyrrole-2-carboxylic acid amide] gave an inhibition at 3 µM of 75 to 95%. In the case of `Cc1c(-c2ccc(Cl)cc2)c(C(=O)N(C)CC2(O)CC2)n(Cc2ccccc2)c1C(F)(F)F` [SC-65, 1-Benzyl-3-(4-chlorophenyl)-N-[(1-hydroxy-cyclopropyl)-methyl]-N,4-dimethyl-5-(trifluoromethyl)-1H-pyrrole-2-carboxylic acid amide], the inhibition at 3 µM is reported as over 95%. `COC1CCN(C(=O)c2c(-c3ccc(Cl)cc3)cc(C(F)(F)F)n2Cc2ccccc2)CC1` [SC-208, [1-Benzyl-3-(4-chlorophenyl)-5-(trifluoromethyl)-1H-pyrrol-2-yl]-(4-methoxy-piperidin-1-yl)-methanone] showed an inhibition at 3 µM of over 95%. In the case of `Cc1c(-c2ccc(C(F)(F)F)cc2)c(C(=O)N2CC(F)(F)C2)n(Cc2ccccc2)c1C(F)(F)F` [SC-96, [1-Benzyl-4-methyl-5-(trifluoromethyl)-3-[4-(trifluoromethyl)-phenyl]-1H-pyrrol-2-yl]-(3,3-difluoro-azetidin-1-yl)-methanone], the inhibition at 3 µM is reported as 40 to 75%. With `Cc1c(-c2ccc(Cl)cc2F)c(C(=O)N(C)CCCS(C)(=O)=O)n(Cc2ccccc2)c1C(F)(F)F` [SC-161, 1-Benzyl-3-(4-chloro-2-fluoro-phenyl)-N,4-dimethyl-N-(3-methylsulfonyl-propyl)-5-(trifluoromethyl)-1H-pyrrole-2-carboxylic acid amide] the inhibition at 3 µM was over 95%. `Cc1c(-c2ccc(Cl)c(F)c2)c(C(=O)N2CCOC(C)(C)C2)n(Cc2ccccc2)c1C(F)(F)F` [SC-249, [1-Benzyl-3-(4-chloro-3-fluoro-phenyl)-4-methyl-5-(trifluoromethyl)-1H-pyrrol-2-yl]-(2,2-dimethyl-morpholin-4-yl)-methanone] was tested, and the inhibition at 3 µM was 75 to 95%. In the case of `CN(CCCS(C)(=O)=O)C(=O)c1c(-c2ccc(Cl)cc2)cc(C(F)(F)F)n1Cc1ccccc1` [SC-189, 1-Benzyl-3-(4-chlorophenyl)-N-methyl-N-(3-methylsulfonyl-propyl)-5-(trifluoromethyl)-1H-pyrrole-2-carboxylic acid amide], the inhibition at 3 µM is reported as over 95%. `Cc1c(-c2ccc(OC(F)(F)F)cc2)c(C(=O)N(C)C2CC2)n(Cc2ccccc2)c1C(F)(F)F` [SC-238, 1-Benzyl-N-cyclopropyl-N,4-dimethyl-5-(trifluoromethyl)-3-[4-(trifluoromethyloxy)-phenyl]-1H-pyrrole-2-carboxylic acid amide] was tested, and the inhibition at 3 µM was 40 to 75%. With `CN(CC1CCOC1)C(=O)c1c(-c2ccc(Cl)cc2)cc(C(F)(F)F)n1Cc1ccccc1` (stereo not shown) [SC-182, 1-Benzyl-3-(4-chlorophenyl)-N-methyl-N-(tetrahydro-furan-3-yl-methyl)-5-(trifluoromethyl)-1H-pyrrole-2-carboxylic acid amide] the inhibition at 3 µM was over 95%. `O=C(c1c(-c2ccc(Cl)cc2F)cc(C(F)(F)F)n1Cc1ccccc1)N1CCOCC1` [SC-86, [1-Benzyl-3-(4-chloro-2-fluoro-phenyl)-5-(trifluoromethyl)-1H-pyrrol-2-yl]-morpholin-4-yl-methanone] gave an inhibition at 3 µM of over 95%.
